The record followed here is patent US20250289897A1, “LEPTIN RECEPTOR AGONISTIC ANTIBODY AS MONO OR COMBO THERAPIES TO TREAT OBESITY” (ELI LILLY AND COMPANY, priority 2024, published 2025).

For one assay, the system named is canine-LEPR. The experiment in a line: STAT3-luciferase reporter assay in HEK293-STAT3Luc-dLepR7 cells. It is filed as cell-based, Canis lupus. An excerpt: (§1) LEPR is a cell surface single-pass transmembrane receptor. Activation of LEPR leads to phosphorylation of intracellular STAT3 (pSTAT3) and subsequent target gene transcription. To measure LEPR activation by anti-LEPR antibodies in the present disclosure, five independent STAT-luciferase reporter cell lines were established by introducing DNA plasmids encoding full-length LEPR of different species and STAT3-luciferase reporter gene into HEK293 cells (Table 4). […]
(§2) Before plating the cells for luciferase assays, the poly-D-Lysine coated 96-well plates (Corning Inc, #354651) were rinsed once with phosphate buffered solution (PBS). […] Cell lysing and One-Glo luciferase substrate solution (Promega, #E6120) were then added to each well, and relative luciferase units (RLUs) were measured on a ClarioStar plate reader. For each reporter cell line, positive control LEPR activation was calculated as the average RLUs stimulated by 20 nM recombinant human leptin protein (SEQ ID NO:27) minus the average RLUs of unstimulated cells and was set as maximum LEPR activation (100%). […]

The next assay concerns the target T1, mouse-LEPR (Mus musculus, UniProt P48356).
T1 construct: introducing DNA plasmids encoding full-length LEPR of different species and STAT3-luciferase reporter gene into HEK293 cells; expressed in transfected cells; host or cells: HEK293 (HEK293-STAT3Luc-msLepR9)
T1 sequence (P48356 22-1162): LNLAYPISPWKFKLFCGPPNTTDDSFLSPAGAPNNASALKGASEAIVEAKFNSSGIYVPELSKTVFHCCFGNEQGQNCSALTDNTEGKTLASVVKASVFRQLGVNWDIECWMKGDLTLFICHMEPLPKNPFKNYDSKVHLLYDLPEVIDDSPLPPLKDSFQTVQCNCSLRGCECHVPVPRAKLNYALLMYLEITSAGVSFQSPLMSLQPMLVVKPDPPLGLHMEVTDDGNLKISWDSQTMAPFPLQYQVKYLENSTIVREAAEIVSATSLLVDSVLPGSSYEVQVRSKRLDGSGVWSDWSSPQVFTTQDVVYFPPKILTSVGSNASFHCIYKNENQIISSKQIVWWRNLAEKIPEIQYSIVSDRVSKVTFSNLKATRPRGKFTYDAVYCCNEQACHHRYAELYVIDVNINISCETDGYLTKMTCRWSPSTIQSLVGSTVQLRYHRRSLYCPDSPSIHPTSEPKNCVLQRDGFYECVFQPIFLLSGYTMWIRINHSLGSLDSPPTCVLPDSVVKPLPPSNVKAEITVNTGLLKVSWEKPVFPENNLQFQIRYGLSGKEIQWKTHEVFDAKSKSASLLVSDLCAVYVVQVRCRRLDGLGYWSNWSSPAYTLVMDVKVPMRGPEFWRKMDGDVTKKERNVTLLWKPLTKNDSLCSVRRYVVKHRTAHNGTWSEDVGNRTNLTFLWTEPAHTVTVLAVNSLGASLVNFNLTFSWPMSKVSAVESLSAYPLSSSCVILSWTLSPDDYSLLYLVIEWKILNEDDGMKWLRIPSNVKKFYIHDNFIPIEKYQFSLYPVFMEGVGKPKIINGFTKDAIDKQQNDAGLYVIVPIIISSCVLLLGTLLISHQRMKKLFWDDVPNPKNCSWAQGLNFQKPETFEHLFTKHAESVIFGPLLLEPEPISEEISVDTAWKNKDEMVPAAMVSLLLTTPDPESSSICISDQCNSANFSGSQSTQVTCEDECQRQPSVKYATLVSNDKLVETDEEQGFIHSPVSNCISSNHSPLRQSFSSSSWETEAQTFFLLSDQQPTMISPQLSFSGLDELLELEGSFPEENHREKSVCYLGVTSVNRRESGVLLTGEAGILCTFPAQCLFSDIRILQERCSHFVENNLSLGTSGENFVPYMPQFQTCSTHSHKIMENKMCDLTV
Description: STAT3-luciferase reporter assay in HEK293-STAT3Luc-msLepR9 cells. It is filed as cell-based.
Source text: as §1, §2
Background: Reporter assays use an easily measured gene product as a stand-in for the process of interest.

The term EC50 denotes the concentration needed to bring the measured effect to its halfway point.

On to “human leptin: recombinant human leptin protein (SEQ ID NO:27), positive control”, for which the EC50 in the assay on canine-LEPR (STAT3-luciferase, 20 hours, read-out: EC50 (nM) ± SEM) was found to be 0.582 ± 0.172 nM; with mouse-LEPR (antibodies at concentrations up to 90 nM, read-out: EC50 (nM) ± SEM), 0.0788 ± 0.017 nM. For the same substance, the “Agonism (%) ± SEM” value with canine-LEPR (top of fitted curve vs response to 20 nM recombinant human leptin) was 107.5%; with mouse-LEPR (vs 20 nM recombinant human leptin, antibodies up to 90 nM), 116.17%.
